Source: the NIST ThermoML archive (doi:10.1016/j.fluid.2011.09.014)
± gives the expanded uncertainty stated by the source.

Columns and labels:
[1] = refractive index (Na D-line) (dimensionless); xn = mol fraction of the nth substance listed; details: 294.15 K; 101 kPa; Liquid; Standard Abbe refractometry; x2 = 0.75
[2] = xn = mol fraction of the nth substance listed; details: 293.15 K; 101 kPa; Liquid; Vibrating tube method; x2 = 0.75
[3] = refractive index (Na D-line) (dimensionless); details: 101.33 kPa, Liquid, Standard Abbe refractometry
[4] = Liquid; for mass density: 101.33 kPa, Vibrating tube method; for Normal boiling temperature: Closed cell (Static) method

| SMILES | refractive index [1] | mass density [2] | refractive index ([3]; 293.15 K) | mass density ([4]; 298.15 K) | Normal boiling temperature [4] | refractive index ([3]; 298.15 K) | mass density ([4]; 293.15 K) |
| --- | --- | --- | --- | --- | --- | --- | --- |
| CC(=O)CC(C)CC(C)C (configuration not stated) [4,6-dimethyl-2-heptanone] + CC(C)CC(=O)CC(C)C | 1.4118 ± 0.0005 | 806.5 ± 0.5 kg/m3 | – | – | – | – | – |
| CC(=O)O [acetic acid] | – | – | 1.3721 ± 0.0004 | 1044.5 ± 0.6 kg/m3 | 117.90 ± 0.2 °C | – | – |
| CC(C)OC(C)C [diisopropyl ether] | – | – | – | 719 ± 0.4 kg/m3 | 68.20 ± 0.2 °C | 1.3655 ± 0.0004 | – |
| O=CO [formic acid] | – | – | 1.3711 ± 0.0006 | – | 100.90 ± 0.2 °C | – | 1218.5 ± 1.4 kg/m3 |
| CCCCCOC(C)=O [pentyl ethanoate] | – | – | 1.4025 ± 0.0006 | – | 149.10 ± 0.2 °C | – | 875.9 ± 0.8 kg/m3 |
| CCC(=O)O [propanoic acid] | – | – | 1.3808 ± 0.0004 | 988.1 ± 0.5 kg/m3 | 141.10 ± 0.2 °C | – | – |
